From patent publication US9918964B2, “Reducing platelet activation, aggregation and platelet-stimulated thrombosis or blood coagulation by reducing mitochondrial respiration” (priority 2010, dated 2018)
In brackets after ≈: the same amount, converted by molar mass. Several values for one entry are separate records, joined by “and”; a condition that tells them apart may be missing. Equal values may be shown once. Read-outs that look alike come from different tables or passages of the source.

What was measured:
platelets in whole blood = assay: Platelet function testing with the Hemostasis Mechanism Analyzer (HMA): clumping, sticking, clotting in whole blood; type: cell-based, human; conditions: for activity at 3300 µg/mL / activity at 6700 µg/mL / activity at 11700 µg/mL / activity at 23300 µg/mL / activity at 5000 µg/mL / activity at 700 µg/mL: Homo sapiens, Platelet; for activity at 3300 µg/mL: Dosage (mg/ml) 3.3; for activity at 11700 µg/mL: Dosage (mg/ml) 11.7; for activity at 23300 µg/mL: Dosage (mg/ml) 23.3; for activity in the platelet assays (active agent or inactive): in vitro whole blood assay, clumping, sticking, clotting; for activity at 5000 µg/mL: Dosage (mg/ml) 5; for activity at 700 µg/mL: Dosage (mg/ml) 0.7
[1] = tested on: mitochondria isolated from liver of tilapia (Sarotheridon mossambica); type: biochemical
[2] = 0 dosage = 100, read-out: % clot time increase
[3] = 0 dosage = 100, read-out: % clump time increase
[4] = 0 dosage = 100, read-out: % stick time increase
[5] = Dosage (mg/ml) 6.7, 0 dosage = 100, read-out: % clot time increase
[6] = Dosage (mg/ml) 6.7, 0 dosage = 100, read-out: % clump time increase
[7] = Dosage (mg/ml) 6.7, 0 dosage = 100, read-out: % stick time increase

Question: How did the “% clot time increase” value (platelets in whole blood) turn out when 1H-triazole [Compound 99] was run?
Answer: 108% and 103%

Question: And the “% clump time increase” value (platelets in whole blood)?
Answer: 103% and 99%

Question: What about the “% stick time increase” value (platelets in whole blood) of the same molecule?
Answer: 99% and 104%

Question: For `O=C(O)CCCCC1CCSS1` (single isomer, unassigned) [Compound 90, 5-[(3R or 3S)-dithiolan-3-yl]pentanoic acid], which “IC50 (mg/ml) mitochondria inhibition” value [1] is on record?
Answer: 37.1 mg/mL (≈ 180 mM)

Question: And the activity at 3300 µg/mL (platelets in whole blood; [2])?
Answer: 97%

Question: And the activity at 3300 µg/mL (platelets in whole blood; [3])?
Answer: 102%

Question: And the activity at 3300 µg/mL (platelets in whole blood; [4])?
Answer: 104%

Question: What about the activity at 6700 µg/mL (platelets in whole blood; [5]) of the same molecule?
Answer: 104%

Question: What about the activity at 6700 µg/mL (platelets in whole blood; [6]) of the same molecule?
Answer: 97%

Question: What about the activity at 6700 µg/mL (platelets in whole blood; [7]) of the same molecule?
Answer: 100%

Question: What about the activity at 11700 µg/mL (platelets in whole blood; [2]) of the same molecule?
Answer: 100%

Question: And the activity at 11700 µg/mL (platelets in whole blood; [3])?
Answer: 110%

Question: And the activity at 11700 µg/mL (platelets in whole blood; [4])?
Answer: 110%

Question: And the activity at 23300 µg/mL (platelets in whole blood; [2])?
Answer: 110%

Question: And the activity at 23300 µg/mL (platelets in whole blood; [3])?
Answer: 129%

Question: What about the activity at 23300 µg/mL (platelets in whole blood; [4]) of the same molecule?
Answer: 136%

Question: And the “activity in the platelet assays (active agent or inactive)” value (shortened to “activity in the platelet assays”) (platelets in whole blood)?
Answer: inactive

Question: `c1ccc(-c2cnn[nH]2)cc1` [Compound 2, 5-phenyl-1H-triazole] was tested. Which “activity in the platelet assays” value (platelets in whole blood) did it give?
Answer: met the criteria for active agents

Question: Which results are given for `Cn1cncn1` [Compound 8, 1-Methyl-1,2,4-triazole]?
Answer: activity at 3300 µg/mL (platelets in whole blood; [2]): 104%; activity at 3300 µg/mL (platelets in whole blood; [3]): 105%; activity at 3300 µg/mL (platelets in whole blood; [4]): 98%; activity at 5000 µg/mL (platelets in whole blood; [2]): 105%; activity at 5000 µg/mL (platelets in whole blood; [3]): 121%; activity at 5000 µg/mL (platelets in whole blood; [4]): 118%; activity at 6700 µg/mL (platelets in whole blood; [5]): 105%; activity at 6700 µg/mL (platelets in whole blood; [6]): 130%; activity at 6700 µg/mL (platelets in whole blood; [7]): 121%

Question: Which results are given for `FC(F)(F)c1ccc(-c2nnn[nH]2)cc1` [Compound 18, 5-[4-(trifluoromethyl)phenyl]-1H-tetrazole]?
Answer: activity at 6700 µg/mL (platelets in whole blood; [5]): 106%; activity at 6700 µg/mL (platelets in whole blood; [6]): 127%; activity at 6700 µg/mL (platelets in whole blood; [7]): 106%

Question: How did the activity at 700 µg/mL (platelets in whole blood; [2]) turn out when `OC(c1ccccc1)c1nnn[nH]1` (stereo not shown) [Compound 24, phenyl(1H-tetrazol-5-yl)methanol] was run?
Answer: 96%

Question: And the activity at 700 µg/mL (platelets in whole blood; [3])?
Answer: 109%

Question: What about the activity at 700 µg/mL (platelets in whole blood; [4]) of the same molecule?
Answer: 105%

Question: What about the activity at 3300 µg/mL (platelets in whole blood; [2]) of the same molecule?
Answer: 105%

Question: And the activity at 3300 µg/mL (platelets in whole blood; [3])?
Answer: 126%

Question: What about the activity at 3300 µg/mL (platelets in whole blood; [4]) of the same molecule?
Answer: 124%

Question: And the activity at 5000 µg/mL (platelets in whole blood; [2])?
Answer: 113%

Question: What about the activity at 5000 µg/mL (platelets in whole blood; [3]) of the same molecule?
Answer: 156%

Question: And the activity at 5000 µg/mL (platelets in whole blood; [4])?
Answer: 152%

Question: What about the activity at 6700 µg/mL (platelets in whole blood; [5]) of the same molecule?
Answer: 116%

Question: What about the activity at 6700 µg/mL (platelets in whole blood; [6]) of the same molecule?
Answer: 160%

Question: And the activity at 6700 µg/mL (platelets in whole blood; [7])?
Answer: 143%

Question: Which results are given for `COc1ccc(-c2nnn[nH]2)cc1` [Compound 26, 5-(4-methoxyphenyl)-1H-tetrazole]?
Answer: activity at 6700 µg/mL (platelets in whole blood; [5]): 102%; activity at 6700 µg/mL (platelets in whole blood; [6]): 122%; activity at 6700 µg/mL (platelets in whole blood; [7]): 118%

Question: For `Cn1cnnc1S` [Compound 33, 4-methyl-1,2,4-triazole-3-thiol], which activity at 5000 µg/mL (platelets in whole blood; [2]) is on record?
Answer: 100%

Question: What about the activity at 5000 µg/mL (platelets in whole blood; [3]) of the same molecule?
Answer: 100%

Question: And the activity at 5000 µg/mL (platelets in whole blood; [4])?
Answer: 119%

Question: And the activity at 6700 µg/mL (platelets in whole blood; [5])?
Answer: 108%

Question: What about the activity at 6700 µg/mL (platelets in whole blood; [6]) of the same molecule?
Answer: 115%

Question: What about the activity at 6700 µg/mL (platelets in whole blood; [7]) of the same molecule?
Answer: 123%

Question: With `Cc1ncsc1CCCl` [Compound 45, 5-(2-chloroethyl)-4-methyl-thiazole] as the molecule, how does the activity at 6700 µg/mL (platelets in whole blood; read-out: % clot time increase) read?
Answer: 101%

Question: What about the activity at 6700 µg/mL (platelets in whole blood; read-out: % clump time increase) of the same molecule?
Answer: 119%

Question: What about the activity at 6700 µg/mL (platelets in whole blood; read-out: % stick time increase) of the same molecule?
Answer: 108%

Question: `C[N+](C)(C)[C@@H](Cc1c[nH]c(=S)[nH]1)C(=O)[O-]` [Compound 50, (2S)-3-(2-thioxo-1,3-dihydroimidazol-4-yl)-2-(trimethylammonio) propanoate] was tested. Which “IC50 (mg/ml) mitochondria inhibition” value [1] did it give?
Answer: 86 mg/mL (≈ 375 mM)

Question: What about the “activity in the platelet assays” value (platelets in whole blood) of the same molecule?
Answer: inactive

Question: With `C[N+](C)(C)[C@H](Cc1c[nH]c(=S)[nH]1)C(=O)[O-]` [Compound 51, (2R)-3-(2-thioxo-1,3-dihydroimidazol-4-yl)-2-(trimethylammonio) propanoate] as the molecule, how does the “IC50 (mg/ml) mitochondria inhibition” value [1] read?
Answer: 93.8 mg/mL (≈ 409 mM)

Question: What about the “activity in the platelet assays” value (platelets in whole blood) of the same molecule?
Answer: inactive
